# How the values were obtained:
# Assay type in all cases: cell-based, human
# [1] = system: CD marker expression on the stem cell surface; experiment: Surface CD marker expression by FACS, overall statement; conditions: 0.1 mM, 0.5 mM and 1 mM of aspirin, 24 hours
# Description: The Vit.C-MSCs cultured in a medium containing vitamin C were cultured for 2 days for adherence and stabilization, and were cultured in fresh RKCM-N media supplemented with aspirin at concentrations of 0.1 mM, 0.5 mM and 1 mM for 24 hours. The CD marker expression on the stem cell surface in the following Table 2 was compared between two types of MSCs, that is, Vit.C-MSCs and ASP-Vit.C-MSCs cultured in aspirin using FACS.
# Vit.C-MSCs [2] = experiment: Characteristics of Vit.C-MSCs cultured in aspirin-containing medium (microscope, Luna automated cell counter); conditions: aspirin concentration of 1 mM or less, 24 hours
# Description: The Vit.C-MSCs cultured in a medium containing vitamin C of Example 1 were incubated for 2 days for adherence and stabilization. Then, the Vit.C-MSCs were cultured in fresh RKCM-N medium supplemented with concentrations of 0.1 mM, 0.5 mM, 1 mM and 10 mM of aspirin for 24 hours. The cell morphologies of Vit.C-MSCs by aspirin were monitored with an […] (100× magnification, Leica DMIL) (FIG. 2), and the proliferation rate, viability and cell size were analyzed using a Luna automated cell counter (Logoy) (FIG. 3).
# Vit.C-MSCs [3] = experiment: Evaluation of toxicity of aspirin on Vit.C-MSCs (cck-8); conditions: aspirin concentration of 5 mM or less, 24 hours, cck-8 absorbance at 450 nm
# Description: The Vit.C-MSCs cultured in a medium containing vitamin C of Example 1 were seeded on a 96-well cell culture plate at a concentration of 1×10^4 cells/plate, and then incubated overnight for cell adherence and stabilization. Then, the cells were cultured in a fresh RKCM-N medium, that is, keratinocyte-SFM containing 5% FBS, 2 mM NAC, 0.2 mM ascorbic acid, 0.09 mM calcium, 5 ng/ml rEGF, 5 μg/ml insulin and 74 ng/ml hydrocortisone, supplemented with aspirin in various concentrations of 0.005 mM, 0.001 mM, 0.05 mM, 0.1 mM, 0.5 mM, 1 mM, 5 mM and 10 mM, for 24 hours. A cck-8 (cell counting Kit-8, Dojindo) solution (10 μl/100 μl) was added to each well and reacted for 2 hours, and the absorbance at 450 nm was measured using a plate reader (Lonza).
smiles,measurement,setting,value
CC(=O)Oc1ccccc1C(=O)O [aspirin],CD marker expression on the stem cell surface,[1],not changed
same,cell size of stem cells,Vit.C-MSCs [2],did not affect
same,morphology of stem cells,Vit.C-MSCs [2],did not affect
same,proliferation rate of stem cells,Vit.C-MSCs [2],did not affect
same,viability of stem cells,Vit.C-MSCs [2],did not affect
same,cytotoxicity of Vit.C-MSCs,Vit.C-MSCs [3],almost no cytotoxicity

# Source: patent publication US11788061B2, “Method for producing mesenchymal stem cells that inhibit proliferation of cancer cells” (priority 2016, dated 2023)
